In patent US9896418B2, “Aryl ethers and uses thereof” (Peloton Therapeutics, Inc., priority 2013, dated 2018):

Test system: HIF-2α HIS TAG-PASB Domain
Experiment: HIF-2α Scintillation Proximity Assay (SPA)
Type: binding
Description: The percent inhibition was determined and IC50 values were calculated using the Dotmatics system based on the following equation: % inhibition=[(high control−sample)/(high control−low control)]×100.

| SMILES | IC50 [nM] |
| --- | --- |
| N#Cc1cc(F)cc(Oc2ccc(S(=O)(=O)C(F)(F)F)c3c2CC(F)C3N)c1 (stereo not drawn) [Compound 268, 3-((1-amino-2-fluoro-7-((trifluoromethyl)sulfonyl)-2,3-dihydro-1H-inden-4-yl)oxy)-5-fluorobenzonitrile] | 3500 |
| CS(=O)(=O)c1ccc(Oc2cc(F)cc(C#N)c2)c2c1C(=O)C(F)(Cl)C2 (stereo not drawn) [Compound 269, 3-((2-chloro-2-fluoro-7-(methylsulfonyl)-1-oxo-2,3-dihydro-1H-inden-4-yl)oxy)-5-fluorobenzonitrile] | 310 |
| C[S+]([O-])c1ccc(Oc2cc(F)cc(C#N)c2)c2c1[C@H](O)C(F)(F)C2 (stereo partly drawn) [Compound 272, 3-[(1S)-2,2-Difluoro-1-hydroxy-7-methylsulfinyl-indan-4-yl]oxy-5-fluoro-benzonitrile] | 2000 |
| C=C1CC(O)c2c(S(C)(=O)=O)ccc(Oc3cc(F)cc(Cl)c3)c21 (stereo not drawn) [Compound 280, 4-(3-chloro-5-fluorophenoxy)-3-methylene-7-(methylsulfonyl)-2,3-dihydro-1H-inden-1-ol] | 3400 |
| N#CN=S(=O)(CF)c1ccc(Oc2cc(F)cc(C#N)c2)c2c1[C@H](O)CC2 (stereo partly drawn) [Compound 282, N—(((R)-7-(3-cyano-5-fluorophenoxy)-3-hydroxy-2,3-dihydro-1H-inden-4-yl)(fluoromethyl)(oxo)-λ^6-sulfanylidene)cyanamide] | 7200 |
| N#CN=S(=O)(CF)c1ccc(Oc2cc(F)cc(C#N)c2)c2c1[C@H](O)CC2 (stereo partly drawn) [Compound 283, N—(((R)-7-(3-cyano-5-fluorophenoxy)-3-hydroxy-2,3-dihydro-1H-inden-4-yl)(fluoromethyl)(oxo)-λ^6-sulfanylidene)cyanamide] | 1400 |
| CS(=O)(=O)N=S(=O)(CF)c1ccc(Oc2cc(F)cc(C#N)c2)c2c1[C@H](O)C(F)(F)C2 (stereo partly drawn) [Compound 284, N—(((S)-7-(3-cyano-5-fluorophenoxy)-2,2-difluoro-3-hydroxy-2,3-dihydro-1H-inden-4-yl)(fluoromethyl)(oxo)-λ^6-sulfanylidene)methanesulfonamide] | 5600 |
| N#Cc1cc(F)cc(Oc2ccc(S(=O)(=O)C(F)(F)F)c3c2CC(F)(F)[C@H]3NCCO)c1 [Compound 291, 3-[(1S)-2,2-difluoro-1-(2-hydroxyethylamino)-7-(trifluoromethylsulfonyl)indan-4-yl]oxy-5-fluoro-benzonitrile] | 4900 |
| CS(=O)(=O)c1ccc(Oc2cc(F)cc(C#N)c2)c2c1[C@H](O)C(F)(F)[C@H]2F [Compound 293, 3-fluoro-5-[(1S,3S)-2,2,3-trifluoro-1-hydroxy-7-methylsulfonyl-indan-4-yl]oxy-benzonitrile] | 720 |
| CS(=O)(=O)c1ccc(Oc2cc(F)cc(C#N)c2)c2c1[C@H](O)C[C@@H]2F [Compound 295, 3-fluoro-5-[(1R,3S)-3-fluoro-1-hydroxy-7-methylsulfonyl-indan-4-yl]oxy-benzonitrile] | 230 |
| CS(=O)(=O)c1ccc(Oc2cc(F)cc(C#N)c2)c2c1[C@H](O)[C@H](F)[C@@H]2O [Compound 296, 3-fluoro-5-[(1S,2R,3R)-2-fluoro-1,3-dihydroxy-7-methylsulfonyl-indan-4-yl]oxy-benzonitrile] | 1300 |
| N#CN=S(=O)(c1ccc(Oc2cc(F)cc(C#N)c2)c2c1[C@H](O)[C@H](F)C2)C(F)F (stereo partly drawn) [Compound 297, N-(((2R,3S)-7-(3-cyano-5-fluorophenoxy)-2-fluoro-3-hydroxy-2,3-dihydro-1H-inden-4-yl)(difluoromethyl)(oxo)-λ^6-sulfanylidene)cyanamide] | 12400 |
| C[C@]1(F)Cc2c(Oc3cc(F)cc(C#N)c3)ccc(S(C)(=O)=O)c2[C@@H]1O [Compound 298, 3-fluoro-5-(((1S,2S)-2-fluoro-1-hydroxy-2-methyl-7-(methylsulfonyl)-2,3-dihydro-1H-inden-4-yl)oxy)benzonitrile] | 16100 |
| N#CN=S(=O)(c1ccc(Oc2cc(F)cc(C#N)c2)c2c1[C@H](O)[C@H](F)C2)C(F)F (stereo partly drawn) [Compound 299, N-(((2R,3S)-7-(3-cyano-5-fluorophenoxy)-2-fluoro-3-hydroxy-2,3-dihydro-1H-inden-4-yl)(difluoromethyl)(oxo)-λ^6-sulfanylidene)cyanamide] | 16100 |
| C[C@@]1(F)Cc2c(Oc3cc(F)cc(C#N)c3)ccc(S(C)(=O)=O)c2[C@@H]1O [Compound 300] | 2030 |
| C[C@@H]1Cc2c(Oc3cc(F)cc(C#N)c3)ccc(S(C)(=O)=O)c2[C@@H]1O [Compound 301, 3-fluoro-5-(((1R,2R)-1-hydroxy-2-methyl-7-(methylsulfonyl)-2,3-dihydro-1H-inden-4-yl)oxy)benzonitrile] | 1900 |
| CS(=O)(=O)c1ccc(Oc2cc(F)cc(C#N)c2)c2c1[C@H](O)C(F)(F)[C@H]2O [Compound 311, 3-[(1S,3S)-2,2-difluoro-1,3-dihydroxy-7-methylsulfonyl-indan-4-yl]oxy-5-fluoro-benzonitrile] | 8700 |
| CS(=O)(=O)c1ccc(Oc2cncc(C#N)c2)c2c1[C@H](O)[C@H](F)C2 [Compound 313, 5-(((1S,2R)-2-fluoro-1-hydroxy-7-(methylsulfonyl)-2,3-dihydro-1H-inden-4-yl)oxy)nicotinonitrile] | 1800 |
| CS(=O)(=NC#N)c1ccc(Oc2cc(F)cc(C#N)c2)c2c1[C@H](O)C(F)(F)[C@H]2F (stereo partly drawn) [Compound 318, [[(1S,3S)-7-(3-cyano-5-fluoro-phenoxy)-1,2,2-trifluoro-3-hydroxy-indan-4-yl]-methyl-oxo-λ^6-sulfanylidene]cyanamide] | 2380 |
| CS(=O)(=O)c1ccc(Oc2cncc(Br)c2)c2c1C(=O)C(F)(F)C2 [Compound 323, 4-((5-Bromopyridin-3-yl)oxy)-2,2-difluoro-7-(methylsulfonyl)-2,3-dihydro-1H-inden-1-one] | 5250 |
| CS(=O)(=O)c1ccc(Oc2cncc(Br)c2)c2c1[C@H](O)[C@H](F)C2 [Compound 326, (1S,2R)-4-((5-Bromopyridin-3-yl)oxy)-2-fluoro-7-(methylsulfonyl)-2,3-dihydro-1H-inden-1-ol] | 1280 |
| CS(=O)(=O)c1ccc(Oc2cncc(F)c2)c2c1[C@H](O)C(F)(F)[C@H]2F [Compound 330, (1S,3S)-2,2,3-trifluoro-4-((5-fluoropyridin-3-yl)oxy)-7-(methylsulfonyl)-2,3-dihydro-1H-inden-1-ol] | 2090 |
| CS(=O)(=O)c1ccc(Oc2cncc(Cl)c2)c2c1[C@H](O)C(F)(F)[C@H]2F [Compound 332, (1S,3S)-4-((5-chloropyridin-3-yl)oxy)-2,2,3-trifluoro-7-(methylsulfonyl)-2,3-dihydro-1H-inden-1-ol] | 2330 |
| N#Cc1cc(F)cc(Oc2ccc(S(N)(=O)=O)c3c2[C@@H](O)C(F)(F)[C@H]3O)c1 [Compound 337, (1R,3S)-7-(3-cyano-5-fluoro-phenoxy)-2,2-difluoro-1,3-dihydroxy-indane-4-sulfonamide] | 3670 |

Molecules with a lower IC50, results first:

| IC50 [nM] | SMILES |
| --- | --- |
| 150 | CS(=O)(=O)c1ccc(Oc2cc(F)cc(C#N)c2)c2c1[C@H](O)C(F)(F)[C@@H]2O [Compound 312, 3-[(1S,3R)-2,2-difluoro-1,3-dihydroxy-7-methylsulfonyl-indan-4-yl]oxy-5-fluoro-benzonitrile] |
| 54 | CS(=O)(=O)c1ccc(Oc2cncc(Br)c2)c2c1[C@H](O)C(F)(F)C2 [Compound 324, (S)-4-((5-Bromopyridin-3-yl)oxy)-2,2-difluoro-7-(methylsulfonyl)-2,3-dihydro-1H-inden-1-ol] |
| 180 | CS(=O)(=O)c1ccc(Oc2cncc(C#N)c2)c2c1[C@H](O)C(F)(F)C2 [Compound 325, (S)-5-((2,2-Difluoro-1-hydroxy-7-(methylsulfonyl)-2,3-dihydro-1H-inden-4-yl)oxy)nicotinonitrile] |
| 28 | CS(=O)(=O)c1ccc(Oc2ccc(F)c(C#N)c2)c2c1[C@H](O)C(F)(F)[C@@H]2F [Compound 327, 2-Fluoro-5-(((1S,3R)-2,2,3-trifluoro-1-hydroxy-7-(methylsulfonyl)-2,3-dihydro-1H-inden-4-yl)oxy)benzonitrile] |
| 32 | CS(=O)(=O)c1ccc(Oc2cncc(Br)c2)c2c1[C@H](O)[C@H](F)[C@@H]2F [Compound 328, (1S,2S,3R)-4-((5-Bromopyridin-3-yl)oxy)-2,3-difluoro-7-(methylsulfonyl)-2,3-dihydro-1H-inden-1-ol] |
| < 5 | CS(=O)(=O)c1ccc(Oc2cncc(F)c2)c2c1[C@H](O)C(F)(F)[C@@H]2F [Compound 329, (1S,3R)-2,2,3-trifluoro-4-((5-fluoropyridin-3-yl)oxy)-7-(methylsulfonyl)-2,3-dihydro-1H-inden-1-ol] |
| 7 | CS(=O)(=O)c1ccc(Oc2cncc(Cl)c2)c2c1[C@H](O)C(F)(F)[C@@H]2F [Compound 331, (1S,3R)-4-((5-chloropyridin-3-yl)oxy)-2,2,3-trifluoro-7-(methylsulfonyl)-2,3-dihydro-1H-inden-1-ol] |
| 74 | CS(=O)(=O)c1ccc(Oc2cncc(C#N)c2)c2c1[C@H](O)[C@H](F)[C@@H]2F [Compound 333, 5-(((1S,2S,3R)-2,3-difluoro-1-hydroxy-7-(methylsulfonyl)-2,3-dihydro-1H-inden-4-yl)oxy)nicotinonitrile] |
| 73 | N#Cc1cc(F)cc(Oc2ccc(S(N)(=O)=O)c3c2C[C@@H](F)[C@H]3O)c1 [Compound 334, (2R,3S)-7-(3-cyano-5-fluoro-phenoxy)-2-fluoro-3-hydroxy-indane-4-sulfonamide] |
| 24 | N#Cc1cncc(Oc2ccc(S(N)(=O)=O)c3c2[C@@H](F)C(F)(F)[C@H]3O)c1 [Compound 340, (1R,3S)-7-[(5-cyano-3-pyridyl)oxy]-1,2,2-trifluoro-3-hydroxy-indane-4-sulfonamide] |
| 18 | NS(=O)(=O)c1ccc(Oc2cncc(F)c2)c2c1[C@H](O)C(F)(F)[C@@H]2F [Compound 341, (1R,3S)-1,2,2-trifluoro-7-[(5-fluoro-3-pyridyl)oxy]-3-hydroxy-indane-4-sulfonamide] |
| 40 | CS(=O)(=O)c1ccc(Oc2cncc(C#N)c2)c2c1[C@H](O)C(F)(F)[C@@H]2F [Compound 342, 5-(((1S,3R)-2,2,3-trifluoro-1-hydroxy-7-(methylsulfonyl)-2,3-dihydro-1H-inden-4-yl)oxy)nicotinonitrile] |
